Experimental data reported in patent US20100056606A1, “Combination therapy using budesonide and antisense oligonucleotide targeted to IL4-receptor alpha” (ISIS Pharmaceuticals, Inc., priority 2005, published 2010).

Tests used:
IL-4R alpha protein [1] = experiment: IL-4R alpha protein in lung cells by flow cytometry, acute model; assay type: in vivo, mouse
Description: Dendritic cells, eosinophils, macrophages and epithelial cells recovered from collagenase digested lung were analyzed for expression of IL-4R alpha protein by flow cytometry. […] A second experiment, in which mice were dosed with 10 μg/kg ISIS 231894, confirmed the efficacy of ISIS 231894 to decrease AHR and eosinophilia in the acute model.

OVA sensitized mice [2] = experiment: Mouse model of allergic inflammation, rechallenge model (AHR/Penh, BAL eosinophils, cytokines); assay type: in vivo
Description: (§1) In the mouse model of allergic inflammation, mice are sensitized and challenged with aerosolized chicken ovalbumin (OVA). Airway responsiveness is assessed by inducing airflow obstruction using a noninvasive method whereby unrestrained conscious OVA sensitized mice are placed into the main chamber of a plethysmograph (Buxco Electronics, Inc. Troy, N.Y.) and challenged with aerosolized methacholine. Pressure difference between this chamber and a reference chamber is used to extrapolate minute volume, breathing frequency and enhanced pause (Penh). Penh is a dimensionless parameter that is a function of total pulmonary airflow (i.e. the sum of the airflow in the upper and lower respiratory tracts) during the respiratory cycle of a mouse and is […] when airflow is greater. This parameter closely correlates with lung resistance as measured by traditional, invasive techniques using ventilated animals (Hamelmann et al., 1997, Am. J. Respir. Crit. Care Med. 156:766-775).
(§2) The rechallenge model of allergic inflammation includes a second series of nebulized OVA challenges on days 66 and 67 in addition to the sensitization and challenge steps of the acute model. This model allows for the evaluation of the target's role in a recall response, as opposed to its role as an initiator molecule. In the rechallenge model, mice were treated with 10, 100 or 500 μg/kg of either ISIS 231894 or the mismatch control oligonucleotide on days 52, 54, 56, 59 and 61, subsequent to the onset and resolution of the OVA-induced acute inflammatory response, delivered by nose only inhalation. The study endpoints were similar to those in the acute model, and included Penh response (i.e. AHR reduction), inflammatory cells and cytokines in BAL (determined by ELISA), mucus accumulation (as determined by periodic acid-Schiff base [PAS] staining in lungs), lung histology and IL-4R alpha protein reduction in lung epithelial and inflammatory cells (as determined by flow cytometry). The results are shown below in Tables 5 and 6.

IL-4R alpha protein [3] = experiment: IL-4R alpha protein on lung cells by flow cytometry, rechallenge model; assay type: in vivo, mouse
Description: as §2

OVA sensitized mice [4] = experiment: Mouse model of allergic inflammation, chronic model (Penh, BAL cells, cytokines); assay type: in vivo; details: for % Eosinophils (BAL) / % Neutrophils (BAL): day 76
Description: as §1
In the chronic model of allergic inflammation, mice are subjected to repeated intranasal OVA administration, producing a chronic inflammatory response. In this model, mice were sensitized by intraperitoneal injection with 100 μg of OVA on days 0 and 14 as in the previous models. OVA was administered at a dose of 500 μg on days 14, 27, 28, 29, 47, 61, 73, 74 and 75. Oligonucleotide, either ISIS 231894 or the mismatch control, was administered via the nose-only aerosol delivery exposure system at a dose of either 5 μg/kg or 500 μg/kg on days 31, 38, 45, 52, 59, 66 and 73. Dexamethasone, an anti-inflammatory agent, was administered by intraperitoneal injection at 2.5 mg/kg on days 47, 62, 73, 74 and 75. Analysis of endpoints was performed on day 76, except cytokines which were evaluated on day 62, 6 hours post OVA challenge. Endpoints were similar to those in the acute and rechallenge model, and included Penh (AHR), BAL inflammatory cell accumulation and cytokines and mucus accumulation.

OVA sensitized mice [5] = experiment: Acute allergic inflammation mouse model with inhaled budesonide and/or ISIS 231894; assay type: in vivo; details: 1 μg/kg ISIS 231894 alone (Table 9)
Description: In the mouse model of allergic inflammation, mice are sensitized and challenged with aerosolized chicken ovalbumin (OVA). Airway responsiveness is assessed by inducing airflow obstruction using a noninvasive method whereby unrestrained conscious OVA sensitized mice are placed into the main chamber of a plethysmograph (Buxco Electronics, Inc. Troy, N.Y.) and challenged with aerosolized methacholine. Pressure difference between this chamber and a reference chamber is used to extrapolate minute volume, breathing frequency and enhanced pause (Penh). Penh is a dimensionless parameter that is a function of total pulmonary airflow (i.e. the sum of the airflow in the upper and lower respiratory tracts) during the respiratory cycle of a mouse and is lower when airflow is greater.
For the acute model of allergic inflammation, mice were sensitized with 20 μg of alum-precipitated OVA was injected intraperitoneally on days 0 and 14. On days 24, 25 and 26, animals were exposed for 20 minutes to 1% OVA (in saline) by ultrasonic nebulization. On days 17, 19, 21, 24 and 26 animals were dosed with vehicle alone (saline), 1 μg/kg or 10 μg/kg of ISIS 231894 or the mismatch control oligonucleotide. Oligonucleotides or vehicle were suspended in 0.9% sodium chloride and delivered via inhalation using a nose-only aerosol delivery exposure system. A Lovelace nebulizer set at a flow rate of 1.4 liter per minute feeding into a total flow rate of 10 liters per minute was used to deliver the oligonucleotide. The exposure chamber was equilibrated with an oligonucleotide aerosol solution for 5 minutes before mice were placed in a restraint tube attached to the chamber. Restrained mice were treated for a total of 10 minutes. Analysis was performed on day 28.
The acute mouse model of allergic inflammation was used to determine if co-administration of inhaled IL-4R alpha antisense oligonucleotide would enhance the activity of inhaled budesonide, or reduce the dose required to produce anti-inflammatory activity. As described in Example 6, mice were sensitized with alum-precipitated OVA at day 0 and day 14 and nebulized with OVA in saline on days 24, 25 and 26. All mice were analyzed on day 28. Budesonide (0.3, 3, 30, and 300 μg/kg dissolved in PBS Containing 20% DMSO) was administered by nose-only aerosol exposure beginning on day 23 (24 and 20 hours before OVA exposure) and then daily through day 26, one hour prior to daily OVA exposure. The 30 μg/kg dose was also administered twice a day (bid) from day 23-26 as a separate group. As in Example 6, ISIS 231894 was administered by nose-only aerosol exposure at day 17, 19, 21, 23 and 26.
The effect of budesonide and/or ISIS 231894 treatment on AHR, BAL eosinophil infiltration and mucus accumulation (number of PAS-positive airways) were determined.

OVA sensitized mice [6] = experiment: Allergic rhinitis mouse model, intranasal administration; assay type: in vivo
Description: In a mouse model of allergic rhinitis, animals were sensitized intraperitoneally with alum-precipitated OVA on days 1, 5, 10 and 15. OVA diluted with saline was administered intranasally (25 μL of 500 μg OVA in each nare) daily, on days 18-22, 25-29, and 32-35. ISIS 231894 and budesonide were administered intranasally, with budesonide administration one hour before each intranasal OVA challenge. ISIS 231894 was administered on days 11, 13, 15, and one hour before each intranasal OVA challenge. Endpoints were evaluated on day 36 and included nasal mucus accumulation (nasal histopathology) nasal eosinophilia, neutrophilia (by nasal lavage analysis and microscopic eosinophil counts in epithelial tissue) and allergic symptoms (numbers of sneezes and nose-rubs observed over a fixed time period).

[7] = Lung concentration, lung half life and tolerability of inhaled oligonucleotide in mice
[8] = Table 11, 0.01 mg/kg intranasal

ISIS 231894: lead antisense oligonucleotide targeted to mouse IL-4R alpha; CCGCTGTTCTCAGGTGACAT; SEQ ID NO: 24; 2'-MOE gapmer, phosphorothioate (all phosphorothioate, sugars by position and methylation of C not given here; 2'-MOE gapmer)
IL-4R alpha protein in dendritic, epithelial and mixed eosinophil/macrophage lung cells, in words (IL-4R alpha protein [1]): significant reduction
percentage of eosinophils in BAL fluid vs mismatch control, in words (OVA sensitized mice [2]): significantly reduced
lung IL-5 mRNA, in words (OVA sensitized mice [2]; 10 μg and 100 μg doses): inhibited
% Eosinophils (BAL) (OVA sensitized mice [2]; 10 μg/kg inhaled): 22%
Penh (100 mg/mL methacholine) (OVA sensitized mice [2]; 10 μg/kg inhaled): 3
% Eosinophils (BAL) (OVA sensitized mice [2]; 100 μg/kg inhaled): 18%
Penh (100 mg/mL methacholine) (OVA sensitized mice [2]; 100 μg/kg inhaled): 3.5
% Eosinophils (BAL) (OVA sensitized mice [2]; 500 μg/kg inhaled): 15%
Penh (100 mg/mL methacholine) (OVA sensitized mice [2]; 500 μg/kg inhaled): 3.5
methacholine-induced AHR (Penh) vs vehicle control, in words (OVA sensitized mice [2]; all three doses (10, 100, 500 μg/kg)): significant reduction
cytokines KC, MCP-1, IL-5 and IL-13 in BAL fluid vs vehicle control, in words (OVA sensitized mice [2]; doses of 100 μg and 500 μg, ELISA): significantly reduced expression
target protein (IL-4R alpha), Dendritic cells (IL-4R alpha protein [3]; 10 μg/kg inhaled): 25 % positive cells
target protein (IL-4R alpha), Macrophages/Eosinophils (IL-4R alpha protein [3]; 10 μg/kg inhaled): 18 % positive cells
target protein (IL-4R alpha), Dendritic cells (IL-4R alpha protein [3]; 100 μg/kg inhaled): 18 % positive cells
target protein (IL-4R alpha), Macrophages/Eosinophils (IL-4R alpha protein [3]; 100 μg/kg inhaled): 20 % positive cells
target protein (IL-4R alpha), Dendritic cells (IL-4R alpha protein [3]; 500 μg/kg inhaled): 10 % positive cells
target protein (IL-4R alpha), Macrophages/Eosinophils (IL-4R alpha protein [3]; 500 μg/kg inhaled): 17 % positive cells
IL-4R alpha surface expression on lung eosinophils, macrophages and dendritic cells, in words (IL-4R alpha protein [3]; flow cytometry): reduced the amount of IL-4R alpha surface expression
% Eosinophils (BAL) (OVA sensitized mice [4]; 5 μg/kg inhaled): 45%
% Neutrophils (BAL) (OVA sensitized mice [4]; 5 μg/kg inhaled): 38%
% Eosinophils (BAL) (OVA sensitized mice [4]; 500 μg/kg inhaled): 29%
% Neutrophils (BAL) (OVA sensitized mice [4]; 500 μg/kg inhaled): 35%
percent of eosinophils in BAL fluid vs vehicle control, in words (OVA sensitized mice [4]; ISIS 231894 500 μg/kg, dexamethasone 2.5 mg/kg ip): significant decrease
methacholine-induced AHR (Penh) vs vehicle, in words (OVA sensitized mice [4]; ISIS 231894 each dose (5, 500 μg/kg), dexamethasone 2.5 mg/kg ip): significant decrease
percent neutrophils in BAL, in words (OVA sensitized mice [4]; both doses of ISIS 231894, dexamethasone 2.5 mg/kg ip): significantly reduced
IL-5 and KC in BAL fluid vs vehicle, in words (OVA sensitized mice [4]; day 62, ISIS 231894 500 μg/kg, dexamethasone 2.5 mg/kg ip): significant reduction
% Eosinophils (BAL) (OVA sensitized mice [5]): 27%
PAS+ airways (mucus accumulation) (OVA sensitized mice [5]): 21
Penh (100 mg/mL methacholine) (OVA sensitized mice [5]): 6.2
% Nasal lavage eosinophils (OVA sensitized mice [6]; [8]): 12%
% Nasal lavage neutrophils (OVA sensitized mice [6]; [8]): 16%
Nasal rubs (OVA sensitized mice [6]; [8]): 0.8 per 5 min
Sneezes (OVA sensitized mice [6]; [8]): 2.5 per 5 min
Tissue eosinophils (OVA sensitized mice [6]; [8]): 438 per mm^2
% Nasal lavage eosinophils (OVA sensitized mice [6]; Table 11, 0.1 mg/kg intranasal): 2%
% Nasal lavage neutrophils (OVA sensitized mice [6]; Table 11, 0.1 mg/kg intranasal): 5%
Nasal rubs (OVA sensitized mice [6]; Table 11, 0.1 mg/kg intranasal): 0.3 per 5 min
Sneezes (OVA sensitized mice [6]; Table 11, 0.1 mg/kg intranasal): 1.9 per 5 min
Tissue eosinophils (OVA sensitized mice [6]; Table 11, 0.1 mg/kg intranasal): 240 per mm^2
% Nasal lavage eosinophils (OVA sensitized mice [6]; Table 11, 1 mg/kg intranasal): 5%
% Nasal lavage neutrophils (OVA sensitized mice [6]; Table 11, 1 mg/kg intranasal): 13%
Nasal rubs (OVA sensitized mice [6]; Table 11, 1 mg/kg intranasal): 0.5 per 5 min
Sneezes (OVA sensitized mice [6]; Table 11, 1 mg/kg intranasal): 1.0 per 5 min
Tissue eosinophils (OVA sensitized mice [6]; Table 11, 1 mg/kg intranasal): 101 per mm^2
% Nasal lavage eosinophils (OVA sensitized mice [6]; Table 11, 10 mg/kg intranasal): 9%
% Nasal lavage neutrophils (OVA sensitized mice [6]; Table 11, 10 mg/kg intranasal): 14%
Nasal rubs (OVA sensitized mice [6]; Table 11, 10 mg/kg intranasal): 1.1 per 5 min
Sneezes (OVA sensitized mice [6]; Table 11, 10 mg/kg intranasal): 4.8 per 5 min
Tissue eosinophils (OVA sensitized mice [6]; Table 11, 10 mg/kg intranasal): 298 per mm^2
nasal eosinophilia, neutrophilia and allergic symptoms (sneezes and nose rubs), in words (OVA sensitized mice [6]; allergic rhinitis model, intranasal, alone and in combination): reduce nasal eosinophilia, neutrophilia and allergic symptoms
effect of once weekly dosing on AHR and airway inflammation, in words ([7]; mice with well established allergen-induced pulmonary inflammation): reduced AHR and airway inflammation
tolerability of intrapulmonary aerosol doses ([7]; mice, doses up to 1 mg/kg): well-tolerated
